Laboratory results from patent EP3345917A1, “ANTIPROTOZOAL COMPOUNDS” (Bacoba AG, priority 2017, dated 2018).
Read-outs that look alike come from different tables or passages of the source. Starred links: 1 amine or outer side, 2 acyl side, 3 side chain; linkers in the order of their positions; H or OH if unused. Non-standard residues stand in square brackets, D forms with d. Residues, ends and D or L forms follow the SMILES beside them. *: point of attachment. ACHC(1S,2R) = O=C([C@H]1CCCC[C@H]1N[*:1])[*:2]; NH((S)CH(Me)CH2NMe2) = C[C@@H](CN(C)C)N*; NH(1-CH2NMe2-cBu) = CN(C)CC1(N*)CCC1; Gly(octyl) = CCCCCCCC[C@H](N)C(=O)O; Oxazole4CO(2-Me) = Cc1nc(C(=O)*)co1; X16 = COc1ccc2cc(C(=O)*)c(=O)oc2c1; X19 = O=C(c1ccnc2cc(Cl)ccc12)*; X17 = C[C@@H](CN1CCOCC1)N*; X22 = CC1CC(C)CN(CCN*)C1; Hexanoyl = CCCCCC(=O)*; X18 = CN1CCN(CCN*)CC1; Aib = CC(C)(N)C(=O)O; Bz = O=C(c1ccccc1)*; βAla = NCCC(=O)O

How the values were obtained:
[1] = test system: Trypanosoma brucei rhodesiense (STIB 900 strain); test: Alamar Blue assay against Trypanosoma brucei rhodesiense grown in axenic medium; type: cell-based; settings: In vitro inhibition, read-out: T.b.rhod.
Summary of the method: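 T. b. rhodesiense STIB 900 cultured in axenic medium and exposed to samples in an Alamar Blue viability assay, run in triplicate. IC50 calculated from the readout; melarsoprol served as reference drug.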

[2] = test system: Trypanosoma cruzi trypomastigote forms (Tulahuen strain); test: Intracellular Trypanosoma cruzi assay in L6-cells, beta-galactosidase/CPRG readout; type: cell-based; settings: In vitro inhibition, read-out: T.cruzi.
Summary of the method: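 L6 rat myoblasts infected with Tulahuen C2C4 LacZ T. cruzi; after incubation, CPRG/Nonidet substrate added and colour developed 2–6 h. Absorbance at 540 nm; IC50 calculated; triplicate tests.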

[3] = test system: Axenically grown Leishmania donovani amastigotes (strain MHOM/ET/67/L82); test: Axenic Leishmania donovani amastigote resazurin assay; type: cell-based; settings: In vitro inhibition, read-out: L.don. ax
Summary of the method: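 Strain MHOM/ET/67/L82 amastigotes grown axenically and tested in triplicate by resazurin assay. Plates developed 2-4 hours, fluorescence read at 536 nm excitation/588 nm emission and expressed as percentage of negative control.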

[4] = test system: intracellular Leishmania donovani (L.don. InMac); test: Intracellular Leishmania donovani assay (L.don. InMac); type: cell-based; settings: In vitro inhibition
Excerpt: (§1) Tests were done in triplicate.

Plasmodium falciparum = test: 3H-hypoxanthine incorporation assay against Plasmodium falciparum; type: cell-based; settings: In vitro inhibition, read-out: P.falc NF5
Procedure: as §1
IC50 values were calculated by linear interpolation.

[5] = Cytotoxicity assay on L6-cells (Alamar Blue); settings: rat, Cytotox L6, Cytotoxicity against rat myoblast cells (L6)
Procedure: Tests were done in triplicate. IC50 values against the parasites as well as cytotoxic effects against rat myoblast (L6-cells) were determined by serial dilution and repeated twice.
After 68 h of incubation under humidified 5% CO2 atmosphere, 10 µl of the Alamar blue marker was added to all wells. The plates were incubated for an additional 2 h. […] The IC50S were calculated by Softmax Pro software (Molecular Devices Cooperation, Sunnyvale, CA). […] Cytotoxicity was measured against rat myoblast cells (Cytotox L6).

| Structure (SMILES) | IC50 [1] | IC50 [2] | IC50 [3] | IC50 [4] | IC50 (Plasmodium falciparum) | IC50 at 70 h [5] | IC50 ([3]; axenic Leishmania donovani) |
| --- | --- | --- | --- | --- | --- | --- | --- |
| CCCCCCCC[C@H](NC(=O)[C@@H]1CCCN1C(=O)c1ccccc1)C(=O)N[C@@H](CC(C)C)C(=O)NC(C)(C)C(=O)N[C@@H](CC(C)C)C(=O)N[C@@H](CC(C)C)C(=O)NC(C)(C)C(=O)NC(C)(C)C(=O)NCCC(=O)N[C@@H](C)CN(C)C [Compound 5649, (2S)-2-{[(2S)-1-benzoylpyrrolidin-2-yl]formamido}-N-[(1S)-1-[(1-{[(1S)-1-{[(1S)-1-{[1-({1-[(2-{[(2S)-1-(dimethylamino)propan-2-yl]carbamoyl}ethyl)carbamoyl]-1-methylethyl}carbamoyl)-1-methylethyl]carbamoyl}-3-methylbutyl]carbamoyl}-3-methylbutyl]carbamoyl}-1-methylethyl)carbamoyl]-3-methylbutyl]decanamide] (Bz-P[Gly(octyl)]L[Aib]LL[Aib][Aib][βAla]-{NH((S)CH(Me)CH2NMe2)}) | 0.7 nM | 8.8 nM | 3.5 nM | 27.2 nM | 2.1 nM |  |  |
| CCCCCCCC[C@H](NC(=O)[C@@H]1CCCN1C(=O)c1ccnc2cc(Cl)ccc12)C(=O)N[C@@H](CC(C)C)C(=O)NC(C)(C)C(=O)N[C@@H](CC(C)C)C(=O)N[C@@H](CC(C)C)C(=O)NC(C)(C)C(=O)NC(C)(C)C(=O)NCCC(=O)N[C@@H](C)CN(C)C [Compound 5768, (2S)-2-{[(2S)-1-(7-chloroquinoline-4-carbonyl)pyrrolidin-2-yl]formamido}-N-[(1S)-1-[(1-{[(1S)-1-{[(1S)-1-{[1-({1-[(2-{[(2S)-1-(dimethylamino)propan-2-yl]carbamoyl}ethyl)carbamoyl]-1-methylethyl}carbamoyl)-1-methylethyl]carbamoyl}-3-methylbutyl]carbamoyl}-3-methylbutyl]carbamoyl}-1-methylethyl)carbamoyl]-3-methylbutyl]decanamide] (X19-P[Gly(octyl)]L[Aib]LL[Aib][Aib][βAla]-{NH((S)CH(Me)CH2NMe2)}) | 8.7 nM | 373 nM | 33.5 nM | 257 nM | 24.5 nM |  |  |
| CCCCCCCC[C@H](NC(=O)[C@@H]1CCCN1C(=O)c1cc2ccc(OC)cc2oc1=O)C(=O)N[C@@H](CC(C)C)C(=O)NC(C)(C)C(=O)N[C@@H](CC(C)C)C(=O)N[C@@H](CC(C)C)C(=O)NC(C)(C)C(=O)NC(C)(C)C(=O)NCCC(=O)N[C@@H](C)CN(C)C [Compound 5769, (2S)-N-[(1S)-1-[(1-{[(1S)-1-{[(1S)-1-{[1-({1-[(2-{[(2S)-1-(dimethylamino)propan-2-yl]carbamoyl}ethyl)carbamoyl]-1-methylethyl}carbamoyl)-1-methylethyl]carbamoyl}-3-methylbutyl]carbamoyl}-3-methylbutyl]carbamoyl}-1-methylethyl)carbamoyl]-3-methylbutyl]-2-{[(2S)-1-(7-methoxy-2-oxo-2H-chromene-3-carbonyl)pyrrolidin-2-yl]formamido}decanamide] (X16-P[Gly(octyl)]L[Aib]LL[Aib][Aib][βAla]-{NH((S)CH(Me)CH2NMe2)}) | 2.8 nM | 167 nM | 8.1 nM | 216 nM | 5.3 nM |  |  |
| CCCCCCCC[C@H](NC(=O)[C@@H]1CCCN1C(=O)CCCCC)C(=O)N[C@@H](CC(C)C)C(=O)NC(C)(C)C(=O)N[C@@H](CC(C)C)C(=O)N[C@@H](CC(C)C)C(=O)NC(C)(C)C(=O)NC(C)(C)C(=O)NCCC(=O)NCCN1CCN(C)CC1 [Compound 5884, (2S)-2-{[(2S)-1-hexanoylpyrrolidin-2-yl]formamido}-N-[(1S)-3-methyl-1-[(1-methyl-1-{[(1S)-3-methyl-1-{[(1S)-3-methyl-1-{[1-methyl-1-({1-methyl-1-[(2-{[2-(4-methylpiperazin-1-yl)ethyl]carbamoyl}ethyl)carbamoyl]ethyl}carbamoyl)ethyl]carbamoyl}butyl]carbamoyl}butyl]carbamoyl}ethyl)carbamoyl]butyl]decanamide] (Hexanoyl-P[Gly(octyl)]L[Aib]LL[Aib][Aib][βAla]-X18) | 0.6 nM | 42500 nM | 19400 nM |  | 15000 nM | 128 nM |  |
| CCCCCCCC[C@H](NC(=O)[C@@H]1CCCN1C(=O)CCCCC)C(=O)N[C@@H](CC(C)C)C(=O)NC(C)(C)C(=O)N[C@@H](CC(C)C)C(=O)N[C@@H](CC(C)C)C(=O)NC(C)(C)C(=O)NC(C)(C)C(=O)NCCC(=O)NCCN1CC(C)CC(C)C1 (stereo partly drawn) [Compound 5885, (2S)-N-[(1S)-1-[(1-{[(1S)-1-{[(1S)-1-{[1-({1-[(2-{[2-(3,5-dimethylpiperidin-1-yl)ethyl]carbamoyl}ethyl)carbamoyl]-1-methylethyl}carbamoyl)-1-methylethyl]carbamoyl}-3-methylbutyl]carbamoyl}-3-methylbutyl]carbamoyl}-1-methylethyl)carbamoyl]-3-methylbutyl]-2-{[(2S)-1-hexanoylpyrrolidin-2-yl]formamido}decanamide] (Hexanoyl-P[Gly(octyl)]L[Aib]LL[Aib][Aib][βAla]-X22) | 0.2 nM | 42600 nM | 46800 nM |  | 0.9 nM | 45.6 nM |  |
| CCCCCCCC[C@H](NC(=O)[C@@H]1CCCN1C(=O)CCCCC)C(=O)N[C@@H](CC(C)C)C(=O)NC(C)(C)C(=O)N[C@@H](CC(C)C)C(=O)N[C@@H](CC(C)C)C(=O)NC(C)(C)C(=O)NC(C)(C)C(=O)NCCC(=O)N[C@@H](C)CN1CCOCC1 [Compound 5981, (2S)-2-{[(2S)-1-hexanoylpyrrolidin-2-yl]formamido}-N-[(1S)-3-methyl-1-[(1-methyl-1-{[(1S)-3-methyl-1-{[(1S)-3-methyl-1-{[1-methyl-1-({1-methyl-1-[(2-{[(2S)-1-(morpholin-4-yl)propan-2-yl]carbamoyl}ethyl)carbamoyl]ethyl}carbamoyl)ethyl]carbamoyl}butyl]carbamoyl}butyl]carbamoyl}ethyl)carbamoyl]butyl]decanamide] (Hexanoyl-P[Gly(octyl)]L[Aib]LL[Aib][Aib][βAla]-X17) | 17.9 nM | 723 nM | 0.2 nM |  | 35800 nM | 1080 nM |  |
| CCCCCCCC[C@H](NC(=O)[C@H]1CCCC[C@H]1NC(=O)c1ccccc1)C(=O)N[C@@H](CC(C)C)C(=O)NC(C)(C)C(=O)N[C@@H](CC(C)C)C(=O)N[C@@H](CC(C)C)C(=O)NC(C)(C)C(=O)NC(C)(C)C(=O)NCCC(=O)N[C@@H](C)CN(C)C [Compound 5982, N-[(1R,2S)-2-{[(1S)-1-{[(1S)-1-[(1-{[(1S)-1-{[(1S)-1-{[1-({1-[(2-{[(2S)-1-(dimethylamino)propan-2-yl]carbamoyl}ethyl)carbamoyl]-1-methylethyl}carbamoyl)-1-methylethyl]carbamoyl}-3-methylbutyl]carbamoyl}-3-methylbutyl]carbamoyl}-1-methylethyl)carbamoyl]-3-methylbutyl]carbamoyl}nonyl]carbamoyl}cyclohexyl]benzamide] (Bz-[ACHC(1S,2R)][Gly(octyl)]L[Aib]LL[Aib][Aib][βAla]-{NH((S)CH(Me)CH2NMe2)}) | 29200 nM | 47.1 nM | 0.9 nM |  | 12100 nM | 573 nM |  |
| CCCCCCCC[C@H](NC(=O)[C@@H]1CCCN1C(=O)c1coc(C)n1)C(=O)N[C@@H](CC(C)C)C(=O)NC(C)(C)C(=O)N[C@@H](CC(C)C)C(=O)N[C@@H](CC(C)C)C(=O)NC(C)(C)C(=O)N[C@@H](CC(C)C)C(=O)NCCC(=O)NC1(CN(C)C)CCC1 [Compound 6329, (2S)-N-[(1S)-1-[(1-{[(1S)-1-{[(1S)-1-[(1-{[(1S)-1-{[2-({1-[(dimethylamino)methyl]cyclobutyl}carbamoyl)ethyl]carbamoyl}-3-methylbutyl]carbamoyl}-1-methylethyl)carbamoyl]-3-methylbutyl]carbamoyl}-3-methylbutyl]carbamoyl}-1-methylethyl)carbamoyl]-3-methylbutyl]-2-{[(2S)-1-(2-methyl-1,3-oxazole-4-carbonyl)pyrrolidin-2-yl]formamido}decanamide] ({Oxazole4CO(2-Me)}-P[Gly(octyl)]L[Aib]LL[Aib]L[βAla]-{NH(1-CH2NMe2-cBu)}) | 0.08 nM | 4.6 nM | 0.17 nM |  | 0.17 nM | 398 nM |  |
| CCCCCCCC[C@H](NC(=O)[C@@H]1CCCN1C(=O)c1coc(C)n1)C(=O)N[C@@H](CC(C)C)C(=O)NC(C)(C)C(=O)NC(C)(C)C(=O)N[C@@H](CC(C)C)C(=O)N[C@@H](CC(C)C)C(=O)NC(C)(C)C(=O)NC(C)(C)C(=O)NCCC(=O)NC1(CN(C)C)CCC1 [Compound 6330, (2S)-N-[(1S)-1-({1-[(1-{[(1S)-1-{[(1S)-1-({1-[(1-{[2-({1-[(dimethylamino)methyl]cyclobutyl}carbamoyl)ethyl]carbamoyl}-1-methylethyl)carbamoyl]-1-methylethyl}carbamoyl)-3-methylbutyl]carbamoyl}-3-methylbutyl]carbamoyl}-1-methylethyl)carbamoyl]-1-methylethyl}carbamoyl)-3-methylbutyl]-2-{[(2S)-1-(2-methyl-1,3-oxazole-4-carbonyl)pyrrolidin-2-yl]formamido}decanamide] ({Oxazole4CO(2-Me)}-P[Gly(octyl)]L[Aib][Aib]LL[Aib][Aib][βAla]-{NH(1-CH2NMe2-cBu)}) | 0.2 nM | 36.3 nM | 0.72 nM |  | 0.24 nM | 1200 nM |  |
| CCCCCCCCCCCCCCCCOP(=O)([O-])OCC[N+](C)(C)C [Miltefosine] |  |  |  | 1200 nM |  |  | 118 nM |
